Reference: patent US11440923B2, “Substituted macrocyclic indole derivatives” (Bayer Aktiengesellschaft, priority 2017, dated 2022)
Counter-ions that a name gives are not always drawn.

Test system: SUDHL5 cells
Experiment: Antiproliferation assay SUDHL5 (Assay 7)
Type: cell-based
Conditions: 72 h, CellTiter-Glo; read-out: Antiproli SUDHL5 IC50 (median)
In short: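 Cell proliferation was measured with CellTiter-Glo luminescence after 72 h compound exposure at 37 °C. A day 0 reference plate, read after overnight incubation, set the time-zero value. IC50s were calculated relative to day 0 (CI) and DMSO control (C0) values.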

SMILES | IC50 [nM]
CCc1c2c(nn1C)C(CCC(C)(C)O)OCCCCn1c(C(=O)O)c(CCCOc3cccc4cc(F)ccc34)c3ccc(Cl)c-2c31 (single isomer, unassigned; enantiomer 1) [Example 75, (+)-4-chloro-3-ethyl-7-{3-[(6-fluoronaphthalen-1-yl)oxy]propyl}-15-(3-hydroxy-3-methylbutyl)-2-methyl-2,10,11,12,13,15-hexahydropyrazolo[4′,3′:9,10][1,6]oxazacycloundecino[8,7,6-hi]indole-8-carboxylic Acid—N-ethylethanamine Salt (Enantiomer 1)] | 11

Same assay, conditions: Homo sapiens, SU-DHL-5, 72 h, 72 h, CellTiter-Glo; read-out: Antiproli SUDHL5 IC50 (median)

SMILES | IC50 [nM]
CCc1c2c(nn1C)C(CCN1CCC(F)(F)C1)OCCCCn1c(C(=O)O)c(CCCOc3cccc4cc(F)ccc34)c3ccc(Cl)c-2c31 (racemic) [Example 55, (rac)-4-chloro-(15-rac)-[2-(3,3-difluoropyrrolidin-1-yl)ethyl]-3-ethyl-7-{3-[(6-fluoronaphthalen-1-yl)oxy]propyl}-2-methyl-2,10,11,12,13,15-hexahydropyrazolo[4′,3′:9,10][1,6]oxazacycloundecino[8,7,6-hi]indole-8-carboxylic acid—2-hydroxypropane-1,2,3-tricarboxylic Acid Salt] | 67
CCc1c2c(nn1C)C(CCC1CCOCC1)OCCCCn1c(C(=O)O)c(CCCOc3cccc4cc(F)ccc34)c3ccc(Cl)c-2c31 (racemic) [Example 60, (rac)-4-chloro-3-ethyl-7-{3-[(6-fluoronaphthalen-1-yl)oxy]propyl}-2-methyl-(15-rac)-[2-(oxan-4-yl)ethyl]-2,10,11,12,13,15-hexahydropyrazolo[4′,3′:9,10][1,6]oxazacycloundecino[8,7,6-hi]indole-8-carboxylic Acid] | 65

Same assay, conditions: Homo sapiens, SU-DHL-5, 72 h, read-out: Antiproli SUDHL5 IC50 (median), 72 h, CellTiter-Glo

SMILES | IC50 [nM]
CCc1c2c(nn1C)C(CCOC)OCCCCn1c(C(=O)O)c(CCCOc3cccc4cc(F)ccc34)c3ccc(Cl)c-2c31 (single isomer, unassigned; enantiomer 1) [Example 42, (+)-4-chloro-3-ethyl-7-{3-[(6-fluoronaphthalen-1-yl)oxy]propyl}-15-(2-methoxyethyl)-2-methyl-2,10,11,12,13,15-hexahydropyrazolo[4′,3′:9,10][1,6]oxazacycloundecino[8,7,6-hi]indole-8-carboxylic Acid—N-ethylethanamine Salt (Enantiomer 1)] | 52
Cc1c2c(nn1C)C(CCN1CCOCC1)OCCCCn1c(C(=O)O)c(CCCOc3cccc4cc(F)ccc34)c3ccc(F)c-2c31 (single isomer, unassigned; enantiomer 1) [Example 20, 4-fluoro-7-{3-[(6-fluoronaphthalen-1-yl)oxy]propyl}-2,3-dimethyl-15-[2-(morpholin-4-yl)ethyl]-2,10,11,12,13,15-hexahydropyrazolo[4′,3′:9,10][1,6]oxazacycloundecino[8,7,6-hi]indole-8-carboxylic Acid—N-ethylethanamine (Enantiomer 1)] | 20
Cc1c2c(nn1C)C(C1CC1)OCCCCn1c(C(=O)O)c(CCCOc3cccc4ccccc34)c3ccc(Cl)c-2c31 (single isomer, unassigned; enantiomer 1) [Example 35, (+)-4-chloro-15-cyclopropyl-2,3-dimethyl-7-{3-[(naphthalen-1-yl)oxy]propyl}-2,10,11,12,13,15-hexahydropyrazolo[4′,3′:9,10][1,6]oxazacycloundecino[8,7,6-hi]indole-8-carboxylic Acid N-ethylethanamine Salt (Enantiomer 1)] | 2700
CCc1c2c(nn1C)C(C1CC1)OCCCCn1c(C(=O)O)c(CCCOc3cccc4cc(F)ccc34)c3ccc(Cl)c-2c31 (single isomer, unassigned; enantiomer 1) [Example 39, (+)-4-chloro-15-cyclopropyl-3-ethyl-7-{3-[(6-fluoronaphthalen-1-yl)oxy]propyl}-2-methyl-2,10,11,12,13,15-hexahydropyrazolo[4′,3′:9,10][1,6]oxazacycloundecino[8,7,6-hi]indole-8-carboxylic Acid—N-ethylethanamine Salt (Enantiomer 1)] | 880

Same assay, conditions: read-out: Antiproli SUDHL5 IC50 (median); 72 h, CellTiter-Glo

SMILES | IC50 [nM]
CCc1c2c(nn1C)C(CCN1CCC(F)(F)C1)OCCCCn1c(C(=O)O)c(CCCOc3cccc4cc(F)ccc34)c3ccc(Cl)c-2c31 (single isomer, unassigned; enantiomer 2) [Example 57, 4-chloro-15-[2-(3,3-difluoropyrrolidin-1-yl)ethyl]-3-ethyl-7-{3-[(6-fluoronaphthalen-1-yl)oxy]propyl}-2-methyl-2,10,11,12,13,15-hexahydropyrazolo[4′,3′:9,10][1,6]oxazacycloundecino[8,7,6-hi]indole-8-carboxylic Acid N-ethylethanamine Salt (Enantiomer 2)] | 8700
CCc1c2c(nn1C)C(CCN1CCOCC1)OCCCCn1c(C(=O)O)c(CCCOc3cccc4ccccc34)c3ccc(F)c-2c31 (single isomer, unassigned; enantiomer 1) [Example 11, 3-ethyl-4-fluoro-2-methyl-15-[2-(morpholin-4-yl)ethyl]-7-{3-[(naphthalen-1-yl)oxy]propyl}-2,10,11,12,13,15-hexahydropyrazolo[4′,3′:9,10][1,6]oxazacycloundecino[8,7,6-hi]indole-8-carboxylic Acid—N-ethylethanamine Salt (Enantiomer 1)] | 75

Second part, the molecule after the results:

IC50 [nM] | SMILES
99 | CCc1c2c(nn1C)C(CC(C)(C)O)OCCCCn1c(C(=O)O)c(CCCOc3cccc4cc(F)ccc34)c3ccc(Cl)c-2c31 (single isomer, unassigned; enantiomer 1) [Example 53, (+)-4-chloro-3-ethyl-7-{3-[(6-fluoronaphthalen-1-yl)oxy]propyl}-15-(2-hydroxy-2-methylpropyl)-2-methyl-2,10,11,12,13,15-hexahydropyrazolo[4′,3′:9,10][1,6]oxazacycloundecino[8,7,6-hi]indole-8-carboxylic Acid—N-ethylethanamine Salt (Enantiomer 1)]
4300 | Cc1c2c(nn1C)C(CCN1CCOCC1)OCCCCn1c(C(=O)O)c(CCCOc3cccc4ccccc34)c3ccc(F)c-2c31 (single isomer, unassigned; enantiomer 2) [Example 9, 4-fluoro-2,3-dimethyl-15-[2-(morpholin-4-yl)ethyl]-7-{3-[(naphthalen-1-yl)oxy]propyl}-2,10,11,12,13,15-hexahydropyrazolo[4′,3′:9,10][1,6]oxazacycloundecino[8,7,6-hi]indole-8-carboxylic Acid—N-ethylethanamine Salt (Enantiomer 2)]
13000 | CCc1c2c(nn1C)C(CC(C)(C)O)OCCCCn1c(C(=O)O)c(CCCOc3cccc4cc(F)ccc34)c3ccc(Cl)c-2c31 (single isomer, unassigned; enantiomer 21) [Example 54, (−)-4-chloro-3-ethyl-7-{3-[(6-fluoronaphthalen-1-yl)oxy]propyl}-15-(2-hydroxy-2-methylpropyl)-2-methyl-2,10,11,12,13,15-hexahydropyrazolo[4′,3′:9,10][1,6]oxazacycloundecino[8,7,6-hi]indole-8-carboxylic Acid—N-ethylethanamine Salt (Enantiomer 21]
